Assay results: ChEMBL document CHEMBL3885861, “Open TG-GATES”

Species on record: Rattus norvegicus
Test: Open TG-GATES - Regimen: Single
Assay type: toxicity, organism-based, Sprague-Dawley
Set-up: regimen Single, gender Male, age 6 weeks
Conditions: in vivo, ip, 0 mg/kg, route intraperitoneal injection, dose level Control; for APTT / Bas / Eos / Fbg / Hb / Ht / Lym / MCH / MCHC / MCV / Mono / Neu / PT / Plat / RBC / Ret / WBC: tissue Blood; for KIDNEY_L / KIDNEY_R / KIDNEY_TOTAL: tissue Kidney; for LIVER: tissue Liver; for A/G / ALP / ALT / AST / BUN / CRE / Ca / Cl / DBIL / GLC / IP / K / LDH / Na / PL / RALB / TBIL / TC / TG / TP / gamma-GTP: tissue Plasma

CC(C)=CC(=O)C=C(C)C [PHORONE]
TERMINAL_BW (3 h): 224.3 g | APTT (3 h): 17.2 s | Bas (3 h): 0% | Eos (3 h): 1% | Fbg (3 h): 227.4 mg/dL | Hb (3 h): 13.5 g/dL | Ht (3 h): 40.2% | Lym (3 h): 71% | MCH (3 h): 22.1 pg | MCHC (3 h): 33.5% | MCV (3 h): 65.9 fL | Mono (3 h): 8.2% | Neu (3 h): 19.8% | PT (3 h): 12.2 s | Plat (3 h): 114.4 x10_4/uL | RBC (3 h): 609.2 x10_4/ul | Ret (3 h): 9.2% | WBC (3 h): 97 x10_2/uL | KIDNEY_L (3 h): 1 g | KIDNEY_R (3 h): 1 g | KIDNEY_TOTAL (3 h): 2 g | LIVER (3 h): 10.7 g | A/G (3 h): 1.9 | ALP (3 h): 863.8 IU/L | ALT (3 h): 35.2 IU/L | AST (3 h): 73.4 IU/L | BUN (3 h): 13.6 mg/dL | CRE (3 h): 0.5 mg/dL | Ca (3 h): 11.1 mg/dL | Cl (3 h): 106.2 meq/L | DBIL (3 h): 0.02 mg/dL | GLC (3 h): 195 mg/dL | IP (3 h): 9.9 mg/dL | K (3 h): 5.1 meq/L | LDH (3 h): 86 IU/L | Na (3 h): 139.6 meq/L | PL (3 h): 142.8 mg/dL | RALB (3 h): 3.6 g/dL | TBIL (3 h): 0.4 mg/dL | TC (3 h): 75.8 mg/dL | TG (3 h): 99 mg/dL | TP (3 h): 5.6 g/dL | gamma-GTP (3 h): 1.4 IU/L | TERMINAL_BW (6 h): 219.5 g | APTT (6 h): 17.4 s | Bas (6 h): 0% | Eos (6 h): 0.6% | Fbg (6 h): 223.8 mg/dL | Hb (6 h): 13.2 g/dL | Ht (6 h): 39.7% | Lym (6 h): 74.6% | MCH (6 h): 21.2 pg | MCHC (6 h): 33.2% | MCV (6 h): 63.9 fL | Mono (6 h): 4.4% | Neu (6 h): 20.4% | PT (6 h): 12.3 s | Plat (6 h): 118.6 x10_4/uL | RBC (6 h): 620.2 x10_4/ul | Ret (6 h): 9.1% | WBC (6 h): 102.1 x10_2/uL | KIDNEY_L (6 h): 0.9 g | KIDNEY_R (6 h): 0.9 g | KIDNEY_TOTAL (6 h): 1.9 g | LIVER (6 h): 9.7 g | A/G (6 h): 2 | ALP (6 h): 700.4 IU/L | ALT (6 h): 34.8 IU/L | AST (6 h): 72.8 IU/L | BUN (6 h): 12.6 mg/dL | CRE (6 h): 0.5 mg/dL | Ca (6 h): 10.6 mg/dL | Cl (6 h): 105.2 meq/L | DBIL (6 h): 0.024 mg/dL | GLC (6 h): 210.4 mg/dL | IP (6 h): 10.2 mg/dL | K (6 h): 4.7 meq/L | LDH (6 h): 65 IU/L | Na (6 h): 139 meq/L | PL (6 h): 137 mg/dL | RALB (6 h): 3.5 g/dL | TBIL (6 h): 0.4 mg/dL | TC (6 h): 77.8 mg/dL | TG (6 h): 50 mg/dL | TP (6 h): 5.2 g/dL | gamma-GTP (6 h): 1.2 IU/L | TERMINAL_BW (9 h): 217.4 g | APTT (9 h): 17.2 s | Bas (9 h): 0% | Eos (9 h): 0.8% | Fbg (9 h): 246.8 mg/dL | Hb (9 h): 13.1 g/dL | Ht (9 h): 39.7% | Lym (9 h): 70% | MCH (9 h): 21.7 pg | MCHC (9 h): 33.1% | MCV (9 h): 65.5 fL | Mono (9 h): 4.6% | Neu (9 h): 25.2% | PT (9 h): 11.9 s | Plat (9 h): 112.4 x10_4/uL | RBC (9 h): 606.8 x10_4/ul | Ret (9 h): 9.2% | WBC (9 h): 108.4 x10_2/uL | KIDNEY_L (9 h): 0.9 g | KIDNEY_R (9 h): 1 g | KIDNEY_TOTAL (9 h): 1.9 g | LIVER (9 h): 9 g | A/G (9 h): 2.1 | ALP (9 h): 720.6 IU/L | ALT (9 h): 29.8 IU/L | AST (9 h): 60.6 IU/L | BUN (9 h): 11.4 mg/dL | CRE (9 h): 0.5 mg/dL | Ca (9 h): 10.7 mg/dL | Cl (9 h): 105.8 meq/L | DBIL (9 h): 0.066 mg/dL | GLC (9 h): 200.6 mg/dL | IP (9 h): 10.6 mg/dL | K (9 h): 4.5 meq/L | LDH (9 h): 74.8 IU/L | Na (9 h): 138.8 meq/L | PL (9 h): 138.6 mg/dL | RALB (9 h): 3.8 g/dL | TBIL (9 h): 0.4 mg/dL | TC (9 h): 79.8 mg/dL | TG (9 h): 42.8 mg/dL | TP (9 h): 5.6 g/dL | gamma-GTP (9 h): 1.4 IU/L | TERMINAL_BW (24 h): 237.9 g | APTT (24 h): 17.4 s | Bas (24 h): 0% | Eos (24 h): 1% | Fbg (24 h): 276.4 mg/dL | Hb (24 h): 12.9 g/dL | Ht (24 h): 38.6% | Lym (24 h): 73.6% | MCH (24 h): 21.5 pg | MCHC (24 h): 33.3% | MCV (24 h): 64.8 fL | Mono (24 h): 4.6% | Neu (24 h): 20.6% | PT (24 h): 11.7 s | Plat (24 h): 118.3 x10_4/uL | RBC (24 h): 596.2 x10_4/ul | Ret (24 h): 8.4% | WBC (24 h): 101.3 x10_2/uL | KIDNEY_L (24 h): 1 g | KIDNEY_R (24 h): 1.1 g | KIDNEY_TOTAL (24 h): 2.1 g | LIVER (24 h): 11.7 g | A/G (24 h): 1.9 | ALP (24 h): 856.2 IU/L | ALT (24 h): 28.8 IU/L | AST (24 h): 55.6 IU/L | BUN (24 h): 16.4 mg/dL | CRE (24 h): 0.5 mg/dL | Ca (24 h): 10.9 mg/dL | Cl (24 h): 103.2 meq/L | DBIL (24 h): 0.026 mg/dL | GLC (24 h): 195.4 mg/dL | IP (24 h): 8.7 mg/dL | K (24 h): 4.9 meq/L | LDH (24 h): 66.2 IU/L | Na (24 h): 138.4 meq/L | PL (24 h): 140.6 mg/dL | RALB (24 h): 3.6 g/dL | TBIL (24 h): 0.4 mg/dL | TC (24 h): 78.4 mg/dL | TG (24 h): 80.8 mg/dL | TP (24 h): 5.6 g/dL | gamma-GTP (24 h): 1.6 IU/L
